This is an account of results in patent US20240139165A1, “METHODS AND COMPOSITIONS FOR TREATMENT OF INFLAMMATORY BOWEL DISEASE” (SHENZHEN HIGHTIDE BIOPHARMACEUTICAL, LTD., priority 2017, published 2024).

Molecules are shown by their SMILES.

This data set in a line: Single-dose pharmacokinetic study of berberine and fish oil in rats. Format: in vivo, male Sprague-Dawley (SD) rats. The conditions noted are these: SD rats, single oral, BBR 100 mg/kg. From the text: In the single-dose pharmacokinetic study in rats, after 7-day acclimation, healthy male Sprague-Dawley (SD) rats with the body weight of 210-250 g were randomized into six groups as follows (3 rats per group). Fish oil used in this study containing 47.8% (w/w) EPA-ethyl ester and 39.0% (w/w) DHA-ethyl ester. [table] The rats in each group were orally treated with the suspensions of the corresponding testing articles indicated above in 0.5% gum tragacanth respectively. Blood samples of the test animals were collected pre-dose and at the time points of 15 min, 30 min, 1 h, 1.5 h, 2 h, 4 h, 8 h, and 24 h post-dose. The collected blood samples (approximately 400 μL) were placed into tubes containing heparin sodium and centrifuged at 8000 rpm for 6 minutes at 4° C. to separate plasma. The obtained plasma from each sample was stored at −80° C. until being analyzed. Plasma concentrations of BBR and EPA were determined, and PK parameters were calculated.

For the compound `COc1ccc2cc3[n+](cc2c1OC)CCc1cc2c(cc1-3)OCO2` [BBR, 5,6-dihydro-9,10-dimethoxybenzo[g]-1,3-benzodioxolo[5,6-a]quinolizinium], the “Cmax of BBR” value turned out to be 4.23 ± 5.46 ng/mL, the “Ratio of AUC0-t of BBR compared to BBR group” value is reported as 1.00 and the “Ratio of Cmax of BBR compared to BBR group” value amounted to 1.00. Also, the AUC(0-t) (male, Sprague-Dawley, rat, plasma, read-out: AUC0-t of BBR) was 45.8 ± 60.1 ng·h/mL.
